# Laboratory results reported in the supplement of paper PMC10307832.
# Legend:
# Test in all cases: relative viability (nuclei count vs DMSO), 5 days (fraction); higher = more cells survive
# NCI-H838 = tested on: NCI-H838
# Procedure, shortened: (§1)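 Lung cancer cell lines were pin-tool dosed in 1536-well plates on the day after seeding, with either a lone drug or a fixed anchor-drug dose plus five library-drug doses (not always all listed) in √10 steps. Nuclei were counted on 4× images after 5 days. Relative viability is the ratio of treated-well to vehicle-well nuclei counts, with each value a median of duplicate plates.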
# HCC-78 = tested on: HCC-78
# Procedure, shortened: as §1
# EKVX = tested on: EKVX
# Procedure, shortened: as §1
# HOP-62 = tested on: HOP-62
# Procedure, shortened: as §1
# NCI-H2087 = tested on: NCI-H2087
# Procedure, shortened: as §1
# NCI-H1395 = tested on: NCI-H1395
# Procedure, shortened: as §1
# LOU-NH91 = tested on: LOU-NH91
# Procedure, shortened: as §1
# HCC-44 = tested on: HCC-44
# Procedure, shortened: as §1
# ChaGo-K-1 = tested on: ChaGo-K-1
# Procedure, shortened: as §1
# SK-MES-1 = tested on: SK-MES-1
# Procedure, shortened: as §1
# HCC-366 = tested on: HCC-366
# Procedure, shortened: as §1
# COR-L23 = tested on: COR-L23
# Procedure, shortened: as §1
# A-427 = tested on: A-427
# Procedure, shortened: as §1
# NCI-H1915 = tested on: NCI-H1915
# Procedure, shortened: as §1
# NCI-H1650 = tested on: NCI-H1650
# Procedure, shortened: as §1
# NCI-H1734 = tested on: NCI-H1734
# Procedure, shortened: as §1
# NCI-H2023 = tested on: NCI-H2023
# Procedure, shortened: as §1
# EPLC-272H = tested on: EPLC-272H
# Procedure, shortened: as §1
# NCI-H596 = tested on: NCI-H596
# Procedure, shortened: as §1
# NCI-H3122 = tested on: NCI-H3122
# Procedure, shortened: as §1
smiles,measurement,setting,value
O=C(O)CCCCC(CCSCc1ccccc1)SCc1ccccc1 (centres undefined) [CPI-613] + CC1(C)CCC(c2ccc(Cl)cc2)=C(CN2CCN(c3ccc(C(=O)NS(=O)(=O)c4ccc(N[C@H](CCN5CCOCC5)CSc5ccccc5)c(S(=O)(=O)C(F)(F)F)c4)cc3)CC2)C1 [Navitoclax] (partner 0.5 µM),relative viability,NCI-H838; first compound 5 µM,1.12
same,relative viability,NCI-H838; first compound 15.81 µM,1.01
same,relative viability,NCI-H838; first compound 50 µM,1.03
same,relative viability,NCI-H838; first compound 158.11 µM,0.39
same,relative viability,NCI-H838; first compound 500 µM,0.113
same,relative viability,HCC-78; first compound 5 µM,0.731
same,relative viability,HCC-78; first compound 15.81 µM,0.749
same,relative viability,HCC-78; first compound 158.11 µM,0.783
same,relative viability,HCC-78; first compound 500 µM,0.876
same,relative viability,EKVX; first compound 5 µM,0.945
same,relative viability,EKVX; first compound 15.81 µM,0.875
same,relative viability,EKVX; first compound 50 µM,0.898
same,relative viability,EKVX; first compound 158.11 µM,0.483
same,relative viability,EKVX; first compound 500 µM,0.951
same,relative viability,HOP-62; first compound 5 µM,0.927
same,relative viability,HOP-62; first compound 15.81 µM,0.992
same,relative viability,HOP-62; first compound 50 µM,0.978
same,relative viability,HOP-62; first compound 158.11 µM,0.984
same,relative viability,HOP-62; first compound 500 µM,0.911
same,relative viability,NCI-H2087; first compound 5 µM,1.03
same,relative viability,NCI-H2087; first compound 15.81 µM,0.953
same,relative viability,NCI-H2087; first compound 50 µM,0.926
same,relative viability,NCI-H2087; first compound 158.11 µM,0.135
same,relative viability,NCI-H2087; first compound 500 µM,0.0127
same,relative viability,NCI-H1395; first compound 5 µM,1.48
same,relative viability,NCI-H1395; first compound 15.81 µM,1.03
same,relative viability,NCI-H1395; first compound 50 µM,1.08
same,relative viability,NCI-H1395; first compound 158.11 µM,1.16
same,relative viability,NCI-H1395; first compound 500 µM,0.961
same,relative viability,LOU-NH91; first compound 5 µM,0.683
same,relative viability,LOU-NH91; first compound 15.81 µM,0.653
same,relative viability,LOU-NH91; first compound 50 µM,0.664
same,relative viability,LOU-NH91; first compound 158.11 µM,0.682
same,relative viability,LOU-NH91; first compound 500 µM,0.579
same,relative viability,HCC-44; first compound 5 µM,1.03
same,relative viability,HCC-44; first compound 15.81 µM,1.08
same,relative viability,HCC-44; first compound 50 µM,1.07
same,relative viability,HCC-44; first compound 158.11 µM,0.322
same,relative viability,HCC-44; first compound 500 µM,0.0385
same,relative viability,ChaGo-K-1; first compound 5 µM,0.671
same,relative viability,ChaGo-K-1; first compound 15.81 µM,0.982
same,relative viability,ChaGo-K-1; first compound 50 µM,0.935
same,relative viability,ChaGo-K-1; first compound 158.11 µM,0.882
same,relative viability,ChaGo-K-1; first compound 500 µM,0.643
same,relative viability,SK-MES-1; first compound 5 µM,1.08
same,relative viability,SK-MES-1; first compound 15.81 µM,1.17
same,relative viability,SK-MES-1; first compound 50 µM,1.1
same,relative viability,SK-MES-1; first compound 158.11 µM,1.03
same,relative viability,SK-MES-1; first compound 500 µM,1
same,relative viability,HCC-366; first compound 5 µM,1.03
same,relative viability,HCC-366; first compound 15.81 µM,0.99
same,relative viability,HCC-366; first compound 50 µM,1.1
same,relative viability,HCC-366; first compound 158.11 µM,0.774
same,relative viability,HCC-366; first compound 500 µM,0.0086
same,relative viability,COR-L23; first compound 5 µM,1.07
same,relative viability,COR-L23; first compound 15.81 µM,0.913
same,relative viability,COR-L23; first compound 50 µM,0.987
same,relative viability,COR-L23; first compound 158.11 µM,0.327
same,relative viability,COR-L23; first compound 500 µM,0.0196
same,relative viability,A-427; first compound 5 µM,0.974
same,relative viability,A-427; first compound 15.81 µM,0.919
same,relative viability,A-427; first compound 50 µM,0.829
same,relative viability,A-427; first compound 158.11 µM,0.342
same,relative viability,A-427; first compound 500 µM,0.273
same,relative viability,NCI-H1915; first compound 5 µM,0.781
same,relative viability,NCI-H1915; first compound 15.81 µM,0.778
same,relative viability,NCI-H1915; first compound 50 µM,0.724
same,relative viability,NCI-H1915; first compound 158.11 µM,0.552
same,relative viability,NCI-H1915; first compound 500 µM,0.55
same,relative viability,NCI-H1650; first compound 5 µM,1.17
same,relative viability,NCI-H1650; first compound 15.81 µM,1.25
same,relative viability,NCI-H1650; first compound 50 µM,1.08
same,relative viability,NCI-H1650; first compound 158.11 µM,0.16
same,relative viability,NCI-H1650; first compound 500 µM,0.034
same,relative viability,NCI-H1734; first compound 5 µM,0.776
same,relative viability,NCI-H1734; first compound 15.81 µM,0.677
same,relative viability,NCI-H1734; first compound 50 µM,0.75
same,relative viability,NCI-H1734; first compound 158.11 µM,0.545
same,relative viability,NCI-H1734; first compound 500 µM,0.117
same,relative viability,NCI-H2023; first compound 5 µM,1.01
same,relative viability,NCI-H2023; first compound 15.81 µM,0.997
same,relative viability,NCI-H2023; first compound 50 µM,0.951
same,relative viability,NCI-H2023; first compound 158.11 µM,0.103
same,relative viability,NCI-H2023; first compound 500 µM,0.0259
same,relative viability,EPLC-272H; first compound 5 µM,1.24
same,relative viability,EPLC-272H; first compound 15.81 µM,0.897
same,relative viability,EPLC-272H; first compound 50 µM,1.11
same,relative viability,EPLC-272H; first compound 158.11 µM,0.86
same,relative viability,EPLC-272H; first compound 500 µM,0.765
same,relative viability,NCI-H596; first compound 5 µM,1.01
same,relative viability,NCI-H596; first compound 15.81 µM,0.925
same,relative viability,NCI-H596; first compound 50 µM,1.11
same,relative viability,NCI-H596; first compound 158.11 µM,0.362
same,relative viability,NCI-H596; first compound 500 µM,0.0344
same,relative viability,NCI-H3122; first compound 5 µM,0.992
same,relative viability,NCI-H3122; first compound 15.81 µM,1.06
same,relative viability,NCI-H3122; first compound 50 µM,0.988
same,relative viability,NCI-H3122; first compound 158.11 µM,0.571
same,relative viability,NCI-H3122; first compound 500 µM,0.0262
